Like-named read-outs stand apart in the source and are kept apart here.
Assays:
Assay in all cases: HotSpot kinase profiling
Format in all cases: biochemical
PKCb2 = molecular target: T1, PKCb2 (Homo sapiens, UniProt P05771)
T1 construct: purchased Reaction Biology Corp
Method in brief: (§1)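 Percent inhibition, averaged when run more than once and referenced to a DMSO negative control, came from a radioactive filter-binding readout on P81 paper. Reactions of kinase with freshly made substrate and cofactors ran for 2 h at room temperature.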

MST4 = molecular target: T2, MST4 (Homo sapiens, UniProt Q9P289)
T2 construct: purchased Reaction Biology Corp
Method in brief: as §1

ERBB2/HER2 = molecular target: T3, ERBB2/HER2 (Homo sapiens, UniProt P04626)
T3 construct: purchased Reaction Biology Corp
Method in brief: as §1

CDK5/p25 = molecular target: T4, CDK5/p25 (Homo sapiens, UniProt Q00535)
T4 construct: purchased Reaction Biology Corp
Method in brief: as §1

CDK1/cyclin A = molecular target: T5, CDK1/cyclin A (Homo sapiens, UniProt P06493)
T5 construct: purchased Reaction Biology Corp
Method in brief: as §1

CHK1 = molecular target: T6, CHK1 (Homo sapiens, UniProt O14757)
T6 construct: purchased Reaction Biology Corp
T6 sequence (O14757 1-476): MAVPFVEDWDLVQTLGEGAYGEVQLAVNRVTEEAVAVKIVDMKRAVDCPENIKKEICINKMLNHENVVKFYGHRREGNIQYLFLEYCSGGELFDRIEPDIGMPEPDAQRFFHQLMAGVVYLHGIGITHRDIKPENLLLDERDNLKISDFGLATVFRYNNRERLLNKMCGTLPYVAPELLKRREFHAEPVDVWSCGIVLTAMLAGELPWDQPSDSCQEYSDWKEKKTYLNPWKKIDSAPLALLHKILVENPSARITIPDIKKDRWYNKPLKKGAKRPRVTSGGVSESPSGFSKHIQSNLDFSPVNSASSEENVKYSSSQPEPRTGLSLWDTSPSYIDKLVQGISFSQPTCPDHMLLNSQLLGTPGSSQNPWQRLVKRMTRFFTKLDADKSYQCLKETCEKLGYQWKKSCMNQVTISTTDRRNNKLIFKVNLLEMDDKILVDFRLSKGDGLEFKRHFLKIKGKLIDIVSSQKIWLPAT
Method in brief: as §1

PKG1a = molecular target: T7, PKG1a (Homo sapiens, UniProt Q13976)
T7 construct: purchased Reaction Biology Corp
T7 sequence (Q13976 1-671): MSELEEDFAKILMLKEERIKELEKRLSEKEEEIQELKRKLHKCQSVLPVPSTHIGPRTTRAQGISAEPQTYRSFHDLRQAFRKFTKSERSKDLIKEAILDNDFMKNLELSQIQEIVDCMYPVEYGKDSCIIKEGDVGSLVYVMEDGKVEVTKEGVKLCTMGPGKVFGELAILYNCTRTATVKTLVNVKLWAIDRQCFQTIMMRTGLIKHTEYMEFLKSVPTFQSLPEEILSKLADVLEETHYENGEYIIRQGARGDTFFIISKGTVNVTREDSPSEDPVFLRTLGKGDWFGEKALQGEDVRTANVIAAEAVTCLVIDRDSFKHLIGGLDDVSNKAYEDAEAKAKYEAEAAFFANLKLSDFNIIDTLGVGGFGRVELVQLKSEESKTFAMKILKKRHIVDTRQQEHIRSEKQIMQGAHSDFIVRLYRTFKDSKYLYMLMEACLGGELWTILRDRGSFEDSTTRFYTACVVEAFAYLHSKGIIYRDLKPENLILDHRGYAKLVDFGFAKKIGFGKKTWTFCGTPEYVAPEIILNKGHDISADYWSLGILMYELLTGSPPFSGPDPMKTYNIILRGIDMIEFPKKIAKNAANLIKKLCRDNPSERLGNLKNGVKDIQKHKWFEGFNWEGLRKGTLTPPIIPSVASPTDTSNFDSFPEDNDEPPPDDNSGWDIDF
Method in brief: as §1

CDK6/cyclin D3 = molecular target: T8, CDK6/cyclin D3 (Homo sapiens, UniProt Q00534)
T8 construct: purchased Reaction Biology Corp
Method in brief: as §1

LIMK2 = molecular target: T9, LIMK2 (Homo sapiens, UniProt P53671)
T9 construct: purchased Reaction Biology Corp
Method in brief: as §1

STK33 = molecular target: T10, STK33 (Homo sapiens, UniProt Q9BYT3)
T10 construct: purchased Reaction Biology Corp
Method in brief: as §1

EGFR = molecular target: T11, EGFR (Homo sapiens, UniProt P00533)
T11 construct: purchased Reaction Biology Corp
Method in brief: as §1

ZAK/MLTK = molecular target: T12, ZAK/MLTK (Homo sapiens, UniProt Q9NYL2)
T12 construct: purchased Reaction Biology Corp
Method in brief: as §1

[1] = read-out: % Enzyme Activity (relative to DMSO controls) Run 1
[2] = read-out: % Enzyme Activity (relative to DMSO controls) Run 2

T10 sequence (Q9BYT3 whole entry): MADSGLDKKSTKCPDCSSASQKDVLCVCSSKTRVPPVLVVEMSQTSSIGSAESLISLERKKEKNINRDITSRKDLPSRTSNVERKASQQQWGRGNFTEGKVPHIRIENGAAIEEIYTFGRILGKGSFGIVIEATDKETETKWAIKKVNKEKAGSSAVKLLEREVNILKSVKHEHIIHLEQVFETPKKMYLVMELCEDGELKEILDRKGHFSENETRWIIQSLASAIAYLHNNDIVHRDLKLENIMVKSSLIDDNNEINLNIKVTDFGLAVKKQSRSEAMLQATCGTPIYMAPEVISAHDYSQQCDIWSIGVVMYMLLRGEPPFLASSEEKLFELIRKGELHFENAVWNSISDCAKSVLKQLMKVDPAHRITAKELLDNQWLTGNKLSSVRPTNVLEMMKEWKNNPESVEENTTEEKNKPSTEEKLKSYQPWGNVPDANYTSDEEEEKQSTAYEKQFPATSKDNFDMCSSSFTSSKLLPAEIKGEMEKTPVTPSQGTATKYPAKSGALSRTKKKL
T12 sequence (Q9NYL2 whole entry): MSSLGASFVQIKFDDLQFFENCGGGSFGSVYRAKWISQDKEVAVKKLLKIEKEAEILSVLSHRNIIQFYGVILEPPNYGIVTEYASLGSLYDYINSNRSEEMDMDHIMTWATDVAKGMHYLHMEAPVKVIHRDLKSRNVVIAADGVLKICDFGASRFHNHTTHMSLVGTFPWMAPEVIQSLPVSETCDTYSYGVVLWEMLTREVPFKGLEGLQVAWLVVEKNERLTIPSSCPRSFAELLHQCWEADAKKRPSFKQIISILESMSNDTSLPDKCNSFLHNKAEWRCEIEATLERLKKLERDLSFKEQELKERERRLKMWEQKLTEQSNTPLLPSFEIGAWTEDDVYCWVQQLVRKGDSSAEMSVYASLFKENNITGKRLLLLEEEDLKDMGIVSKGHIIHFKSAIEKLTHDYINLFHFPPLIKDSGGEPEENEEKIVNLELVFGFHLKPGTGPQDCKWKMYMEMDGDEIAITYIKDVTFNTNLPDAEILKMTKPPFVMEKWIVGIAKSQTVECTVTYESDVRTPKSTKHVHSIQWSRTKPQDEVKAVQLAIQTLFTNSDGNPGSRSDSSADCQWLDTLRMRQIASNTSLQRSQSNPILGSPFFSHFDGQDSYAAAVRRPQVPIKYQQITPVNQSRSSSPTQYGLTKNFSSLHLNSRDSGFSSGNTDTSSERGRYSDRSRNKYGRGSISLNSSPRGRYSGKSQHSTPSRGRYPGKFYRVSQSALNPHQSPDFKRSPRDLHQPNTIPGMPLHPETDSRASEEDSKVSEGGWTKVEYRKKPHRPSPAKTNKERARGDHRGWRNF
T3 sequence (P04626 23-1255): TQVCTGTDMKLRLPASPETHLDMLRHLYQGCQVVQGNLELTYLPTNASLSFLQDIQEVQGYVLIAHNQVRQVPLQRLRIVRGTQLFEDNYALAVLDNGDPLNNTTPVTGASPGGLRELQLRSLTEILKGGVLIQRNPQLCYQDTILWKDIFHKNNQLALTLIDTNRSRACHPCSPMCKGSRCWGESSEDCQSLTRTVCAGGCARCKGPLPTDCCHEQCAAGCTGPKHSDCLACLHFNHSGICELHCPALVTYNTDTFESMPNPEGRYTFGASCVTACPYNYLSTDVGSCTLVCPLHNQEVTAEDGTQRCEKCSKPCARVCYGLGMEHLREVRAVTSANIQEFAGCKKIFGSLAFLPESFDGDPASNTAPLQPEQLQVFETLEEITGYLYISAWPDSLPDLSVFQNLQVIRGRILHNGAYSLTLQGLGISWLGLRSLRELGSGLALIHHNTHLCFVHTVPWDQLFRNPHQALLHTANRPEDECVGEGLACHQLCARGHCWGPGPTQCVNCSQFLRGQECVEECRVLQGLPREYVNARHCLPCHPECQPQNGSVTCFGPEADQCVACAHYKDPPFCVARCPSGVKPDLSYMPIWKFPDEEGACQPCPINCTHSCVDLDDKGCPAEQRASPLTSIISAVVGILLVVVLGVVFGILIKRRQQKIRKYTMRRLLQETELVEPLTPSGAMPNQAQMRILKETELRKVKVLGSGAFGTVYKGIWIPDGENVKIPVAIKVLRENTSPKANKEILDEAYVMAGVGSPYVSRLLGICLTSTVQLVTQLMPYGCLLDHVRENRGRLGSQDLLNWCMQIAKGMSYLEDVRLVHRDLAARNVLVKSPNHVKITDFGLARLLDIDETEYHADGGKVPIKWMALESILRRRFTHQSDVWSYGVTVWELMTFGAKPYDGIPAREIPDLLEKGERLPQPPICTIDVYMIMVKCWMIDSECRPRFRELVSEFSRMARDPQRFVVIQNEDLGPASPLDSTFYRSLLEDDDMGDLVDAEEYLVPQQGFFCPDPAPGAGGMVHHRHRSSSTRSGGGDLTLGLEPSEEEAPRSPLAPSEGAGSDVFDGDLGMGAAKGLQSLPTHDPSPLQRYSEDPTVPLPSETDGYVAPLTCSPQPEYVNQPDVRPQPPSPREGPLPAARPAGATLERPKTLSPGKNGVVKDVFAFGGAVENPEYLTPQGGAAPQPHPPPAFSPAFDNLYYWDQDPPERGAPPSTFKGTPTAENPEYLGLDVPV
T2 sequence (Q9P289 whole entry): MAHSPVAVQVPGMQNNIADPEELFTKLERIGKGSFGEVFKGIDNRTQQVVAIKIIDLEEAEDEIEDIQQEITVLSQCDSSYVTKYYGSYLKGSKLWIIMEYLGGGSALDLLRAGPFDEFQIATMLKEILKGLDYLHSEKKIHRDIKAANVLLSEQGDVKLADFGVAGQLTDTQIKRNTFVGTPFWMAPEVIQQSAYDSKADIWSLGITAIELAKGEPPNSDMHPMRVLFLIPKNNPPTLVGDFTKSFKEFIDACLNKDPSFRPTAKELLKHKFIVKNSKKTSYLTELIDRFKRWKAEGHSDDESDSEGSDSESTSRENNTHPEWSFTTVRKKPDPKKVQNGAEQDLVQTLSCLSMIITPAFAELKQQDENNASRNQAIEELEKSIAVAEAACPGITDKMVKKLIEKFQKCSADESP
T11 sequence (P00533 25-1210): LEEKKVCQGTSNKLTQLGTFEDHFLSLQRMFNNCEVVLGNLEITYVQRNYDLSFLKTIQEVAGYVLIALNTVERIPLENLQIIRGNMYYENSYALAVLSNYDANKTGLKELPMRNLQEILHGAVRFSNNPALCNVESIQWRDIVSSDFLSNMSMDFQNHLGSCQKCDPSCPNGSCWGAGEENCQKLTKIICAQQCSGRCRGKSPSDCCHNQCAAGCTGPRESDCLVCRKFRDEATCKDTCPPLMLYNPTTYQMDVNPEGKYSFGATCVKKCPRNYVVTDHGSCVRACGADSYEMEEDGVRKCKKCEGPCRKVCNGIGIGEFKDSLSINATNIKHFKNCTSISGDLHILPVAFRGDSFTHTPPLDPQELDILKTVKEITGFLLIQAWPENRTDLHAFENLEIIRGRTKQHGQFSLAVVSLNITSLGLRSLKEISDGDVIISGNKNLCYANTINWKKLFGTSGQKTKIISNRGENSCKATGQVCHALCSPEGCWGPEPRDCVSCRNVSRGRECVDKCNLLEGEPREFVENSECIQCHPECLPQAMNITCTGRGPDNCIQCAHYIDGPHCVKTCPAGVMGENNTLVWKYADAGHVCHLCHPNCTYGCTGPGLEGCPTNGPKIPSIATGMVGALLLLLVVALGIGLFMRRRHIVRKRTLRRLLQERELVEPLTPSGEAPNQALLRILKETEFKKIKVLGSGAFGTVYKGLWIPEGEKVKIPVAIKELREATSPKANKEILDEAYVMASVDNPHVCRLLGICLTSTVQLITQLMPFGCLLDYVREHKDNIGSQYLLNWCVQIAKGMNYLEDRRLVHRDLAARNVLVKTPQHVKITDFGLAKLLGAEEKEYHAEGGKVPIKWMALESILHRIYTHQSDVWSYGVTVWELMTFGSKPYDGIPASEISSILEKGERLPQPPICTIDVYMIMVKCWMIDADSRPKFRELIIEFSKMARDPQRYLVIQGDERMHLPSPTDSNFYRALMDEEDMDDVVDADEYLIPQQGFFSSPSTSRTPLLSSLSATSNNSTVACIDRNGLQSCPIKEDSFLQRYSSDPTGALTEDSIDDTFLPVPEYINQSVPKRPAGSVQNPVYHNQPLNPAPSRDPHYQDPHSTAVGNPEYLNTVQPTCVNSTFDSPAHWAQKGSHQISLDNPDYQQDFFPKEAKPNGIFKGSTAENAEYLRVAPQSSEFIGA
T8 sequence (Q00534 whole entry): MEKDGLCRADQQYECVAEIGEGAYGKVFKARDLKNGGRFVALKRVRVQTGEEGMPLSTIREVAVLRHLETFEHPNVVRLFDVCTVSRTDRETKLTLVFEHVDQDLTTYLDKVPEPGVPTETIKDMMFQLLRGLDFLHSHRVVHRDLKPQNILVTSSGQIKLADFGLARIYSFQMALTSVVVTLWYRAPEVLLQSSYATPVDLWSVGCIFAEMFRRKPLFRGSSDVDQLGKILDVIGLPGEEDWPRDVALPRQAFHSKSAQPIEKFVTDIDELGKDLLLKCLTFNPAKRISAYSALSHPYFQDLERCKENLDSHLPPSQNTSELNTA
T8 sequence (P30281 whole entry partner): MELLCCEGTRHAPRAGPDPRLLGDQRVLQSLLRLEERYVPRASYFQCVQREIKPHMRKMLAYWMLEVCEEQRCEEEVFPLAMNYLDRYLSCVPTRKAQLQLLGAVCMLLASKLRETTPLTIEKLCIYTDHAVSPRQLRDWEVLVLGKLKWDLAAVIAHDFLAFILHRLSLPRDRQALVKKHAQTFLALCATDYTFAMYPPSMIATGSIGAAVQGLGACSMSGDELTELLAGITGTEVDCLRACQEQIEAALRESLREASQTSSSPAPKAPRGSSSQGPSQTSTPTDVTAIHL

Compound: C=CC(=O)Nc1cccc(Nc2nc(Nc3ccc(OCCOC)c(F)c3)ncc2F)c1 [Compound 2]
- inhibition at 3 µM (PKCb2): 50.5%
- remaining activity at 3 µM (PKCb2; [1]): 50.1%
- remaining activity at 3 µM (PKCb2; [2]): 48.9%
- inhibition at 3 µM (MST4): -1.09%
- remaining activity at 3 µM (MST4; [1]): 97.8%
- remaining activity at 3 µM (MST4; [2]): 104%
- inhibition at 3 µM (ERBB2/HER2): 61.3%
- remaining activity at 3 µM (ERBB2/HER2; [1]): 39.8%
- remaining activity at 3 µM (ERBB2/HER2; [2]): 37.5%
- inhibition at 3 µM (CDK5/p25): 9.1%
- remaining activity at 3 µM (CDK5/p25; [1]): 89.5%
- remaining activity at 3 µM (CDK5/p25; [2]): 92.3%
- inhibition at 3 µM (CDK1/cyclin A): -18%
- remaining activity at 3 µM (CDK1/cyclin A; [1]): 112%
- remaining activity at 3 µM (CDK1/cyclin A; [2]): 124%
- inhibition at 3 µM (CHK1): 6.15%
- remaining activity at 3 µM (CHK1; [1]): 93.1%
- remaining activity at 3 µM (CHK1; [2]): 94.6%
- inhibition at 3 µM (PKG1a): 8.73%
- remaining activity at 3 µM (PKG1a; [1]): 88%
- remaining activity at 3 µM (PKG1a; [2]): 94.5%
- inhibition at 3 µM (CDK6/cyclin D3): 0.16%
- remaining activity at 3 µM (CDK6/cyclin D3; [1]): 99.5%
- remaining activity at 3 µM (CDK6/cyclin D3; [2]): 100%
- inhibition at 3 µM (LIMK2): -0.86%
- remaining activity at 3 µM (LIMK2; [1]): 101%
- remaining activity at 3 µM (LIMK2; [2]): 101%
- inhibition at 3 µM (STK33): 48.1%
- remaining activity at 3 µM (STK33; [1]): 51.2%
- remaining activity at 3 µM (STK33; [2]): 52.5%
- inhibition at 3 µM (EGFR): 80.3%
- remaining activity at 3 µM (EGFR; [1]): 19.2%
- remaining activity at 3 µM (EGFR; [2]): 20.2%
- inhibition at 3 µM (ZAK/MLTK): 15.7%
- remaining activity at 3 µM (ZAK/MLTK; [1]): 83.7%
- remaining activity at 3 µM (ZAK/MLTK; [2]): 85%
